This data set relates to Mg-63 cells. Kind of data set: LDH cytotoxicity assay (LDH release as marker of dead cells). In kind it is cell-based. Particulars: control group = 100%, aloe vera extract 5% (v/v), SDKP about 75 micrograms per milliliter, Fingolimod hydrochloride about 10 nanogram per milliliter, FIG. 3. As for the experimental part:
In some cases, lactate dehydrogenase (LDH) assays can be performed by assessing or measuring the LDH released into the media as a marker of dead cells. In this example, biocompatibility and cytotoxicity of the injectable scaffold of the present disclosure as a whole and its components were measured by an LDH cytotoxicity assay as follows.
Mg-63 cell line was the source of osteoblast cells in the following assays. Six test groups and one control group of Mg-63 cells were prepared for investigating the cytotoxicity effects of the present injectable scaffold and its components. FIG. 3 illustrates the data of LDH release from Mg-63 cells of six test groups and one control group. […]

Turning to `C[C@H](NC(=O)[C@H](CC(=O)O)NC(=O)[C@H](C)NC(=O)[C@H](CCCNC(=N)N)NC(=O)[C@H](C)NC(=O)[C@H](CC(=O)O)NC(=O)[C@H](C)NC(=O)[C@H](CCCNC(=N)N)NC(=O)[C@H](C)NC(=O)[C@H](CC(=O)O)NC(=O)[C@H](C)NC(=O)[C@H](CCCNC(=N)N)NC(=O)[C@H](C)NC(=O)[C@H](CC(=O)O)NC(=O)[C@H](C)NC(=O)[C@@H](N)CCCNC(=N)N)C(=O)O` [R], the LDH release entry is “about 62.35%”.

For the origin of these results see patent US10485895B2, “Self-assembling peptide scaffolds” (CELLULAR AND MOLECULAR RESEARCH CENTER, IRAN UNIVERSITY OF …, priority 2016, dated 2019).
